Measurements taken from ChEMBL document CHEMBL5260810, “Inhibition of bromodomain-containing protein 9 for the prevention of epigenetically-defined drug resistance” (Bioorg Med Chem Lett, 2017).

Experiments:
Type in all cases: functional, cell-based
[1] = Cytotoxicity against human MT-3 cells measured after 8 days; conditions: MT-3, 192 h
[2] = system: 786-0; experiment: Cytotoxicity against human 786-0 cells measured after 8 days; conditions: 786-0, 192 h
[3] = Cytotoxicity against human ECC-1 cells measured after 8 days; conditions: ECC-1, 192 h
[4] = Cytotoxicity against human KP-3L cells measured after 8 days; conditions: 192 h
[5] = system: FTC-133; experiment: Cytotoxicity against human FTC-133 cells measured after 8 days; conditions: FTC-133, 192 h
[6] = system: SCLC-21H; experiment: Cytotoxicity against human SCLC-21H cells measured after 8 days; conditions: 192 h
[7] = system: MC-38; experiment: Cytotoxicity against mouse MC-38 cells measured after 8 days; conditions: MC-38, 192 h
[8] = Cytotoxicity against mouse FOX-NY cells measured after 8 days; conditions: 192 h
[9] = system: 143B; experiment: Cytotoxicity against human 143B cells measured after 8 days; conditions: 192 h
[10] = system: PANC-03-27; experiment: Cytotoxicity against human Panc 03.27 cells measured after 8 days; conditions: PANC-03-27, 192 h
[11] = Cytotoxicity against human HEC-88nu cells measured after 8 days; conditions: 192 h
[12] = Cytotoxicity against human GCH-nu-YS cells measured after 8 days; conditions: 192 h
[13] = system: A 172; experiment: Cytotoxicity against human A-172 cells measured after 8 days; conditions: A 172, 192 h
[14] = system: T98G; experiment: Cytotoxicity against human T98G cells measured after 8 days; conditions: 192 h
[15] = system: HepG2; experiment: Cytotoxicity against human HepG2 cells measured after 8 days; conditions: HepG2, 192 h
[16] = system: RCM-1; experiment: Cytotoxicity against human RCM-1 cells measured after 8 days; conditions: RCM-1, 192 h
[17] = system: COR-L47; experiment: Cytotoxicity against human COR-L47 cells measured after 8 days; conditions: COR-L47, 192 h
[18] = Cytotoxicity against human NCE-G 121 cells measured after 8 days; conditions: NCE-G 121, 192 h
[19] = system: NCI-H446; experiment: Cytotoxicity against human NCI-H446 cells measured after 8 days; conditions: NCI-H446, 192 h
[20] = Cytotoxicity against human COLO 857 cells measured after 8 days; conditions: COLO 857, 192 h
[21] = Cytotoxicity against human RERF-LC-KJ cells measured after 8 days; conditions: 192 h
[22] = system: PSN1; experiment: Cytotoxicity against human PSN1 cells measured after 8 days; conditions: PSN1, 192 h
[23] = Cytotoxicity against human KCI-MOH1 cells measured after 8 days; conditions: KCI-MOH1, 192 h
[24] = system: SKG-IIIa; experiment: Cytotoxicity against human SKG-IIIa cells measured after 8 days; conditions: 192 h
[25] = system: SiHa; experiment: Cytotoxicity against human SiHa cells measured after 8 days; conditions: 192 h
[26] = system: BaF3; experiment: Cytotoxicity against mouse BaF3 cells measured after 8 days; conditions: BaF3, 192 h
[27] = Cytotoxicity against human KMRC-20 cells measured after 8 days; conditions: KMRC-20, 192 h
[28] = system: KP-N-YN; experiment: Cytotoxicity against human KP-N-YN cells measured after 8 days; conditions: 192 h
[29] = system: SW1463; experiment: Cytotoxicity against human SW1463 cells measured after 8 days; conditions: SW1463, 192 h
[30] = Cytotoxicity against human NCE-G 59 cells measured after 8 days; conditions: NCE-G 59, 192 h
[31] = Cytotoxicity against human KMRC-1 cells measured after 8 days; conditions: KMRC-1, 192 h
[32] = Cytotoxicity against human COLO 849 cells measured after 8 days; conditions: COLO 849, 192 h
[33] = system: BT-20; experiment: Cytotoxicity against human BT-20 cells measured after 8 days; conditions: BT-20, 192 h
[34] = system: Ishikawa; experiment: Cytotoxicity against human Ishikawa cells measured after 8 days; conditions: 192 h
[35] = system: HN; experiment: Cytotoxicity against human HN cells measured after 8 days; conditions: 192 h
[36] = system: LN-18; experiment: Cytotoxicity against human LN-18 cells measured after 8 days; conditions: LN-18, 192 h
[37] = system: HPAF-II; experiment: Cytotoxicity against human HPAF-II cells measured after 8 days; conditions: 192 h
[38] = system: KMS-12-BM; experiment: Cytotoxicity against human KMS-12-BM cells measured after 8 days; conditions: 192 h
[39] = system: UMUC3; experiment: Cytotoxicity against human UMUC3 cells measured after 8 days; conditions: UMUC3, 192 h
[40] = Cytotoxicity against human HSC-5 cells measured after 8 days; conditions: HSC-5, 192 h
[41] = system: SK-HEP1; experiment: Cytotoxicity against human SK-HEP1 cells measured after 8 days; conditions: SK-HEP1, 192 h
[42] = system: RS4-11; experiment: Cytotoxicity against human RS4-11 cells measured after 8 days; conditions: RS4-11, 192 h
[43] = system: EFE-184; experiment: Cytotoxicity against human EFE-184 cells measured after 8 days; conditions: EFE-184, 192 h
[44] = system: MCF-10A; experiment: Cytotoxicity against human MCF-10A AKT2-/- cells measured after 8 days; conditions: 192 h
[45] = Cytotoxicity against human COV318 cells measured after 8 days; conditions: COV318, 192 h
[46] = system: KYSE-150 cell line; experiment: Cytotoxicity against human KYSE-150 cell line measured after 8 days; conditions: KYSE-150, 192 h
[47] = system: RT-112; experiment: Cytotoxicity against human RT-112 cells measured after 8 days; conditions: RT-112, 192 h
[48] = system: SISO; experiment: Cytotoxicity against human SISO cells measured after 8 days; conditions: 192 h
[49] = Cytotoxicity against human HCC364 cells measured after 8 days; conditions: HCC364, 192 h
[50] = Cytotoxicity against human FA9JTOTERT cells measured after 8 days; conditions: 192 h
[51] = Cytotoxicity against human KR7414 cells measured after 8 days; conditions: KR7414, 192 h
[52] = system: ACHN; experiment: Cytotoxicity against human ACHN cells measured after 8 days; conditions: 192 h
[53] = Cytotoxicity against human MMAc cells measured after 8 days; conditions: 192 h
[54] = system: Hs 695T; experiment: Cytotoxicity against human Hs 695T cells measured after 8 days; conditions: 192 h
[55] = system: RT-4; experiment: Cytotoxicity against human RT-4 cells measured after 8 days; conditions: RT-4, 192 h
[56] = system: 8505C; experiment: Cytotoxicity against human 8505C cells measured after 8 days; conditions: 192 h
[57] = Cytotoxicity against mouse Clone M-3 cells measured after 8 days; conditions: Clone M-3, 192 h
[58] = Cytotoxicity against human Karpas-620 cells measured after 8 days; conditions: Karpas-620, 192 h
[59] = system: PC-9; experiment: Cytotoxicity against human PC-9 cells assessed as decrease in drug tolerant population supplemented with fresh medium containing compound every 3 days for 9 days in presence of erlotinib by Beckman Coulter counting method; conditions: time 9.0 day
[60] = system: SH-SY5Y; experiment: Cytotoxicity against human SH-SY5Y cells measured after 8 days; conditions: 192 h
[61] = system: C32; experiment: Cytotoxicity against human C32 cells measured after 8 days; conditions: C32, 192 h
[62] = system: HeLa; experiment: Cytotoxicity against human HeLa cells measured after 8 days; conditions: 192 h
[63] = system: C170; experiment: Cytotoxicity against human C170 cells measured after 8 days; conditions: C170, 192 h
[64] = Cytotoxicity against human HCC89 cells measured after 8 days; conditions: HCC89, 192 h

Compound: C/C=C/Cn1cc(-c2ccc(C(C)(C)O)cc2OC)c2cc[nH]c2c1=O
- IC50 [1]: 20 µM
- IC50 [2]: 20 µM
- IC50 [3]: 20 µM
- IC50 [4]: 20 µM
- IC50 [5]: 20 µM
- IC50 [6]: 20 µM
- IC50 [7]: 20 µM
- IC50 [8]: 20 µM
- IC50 [9]: 17.2 µM
- IC50 [10]: 20 µM
- IC50 [11]: 20 µM
- IC50 [12]: 20 µM
- IC50 [13]: 20 µM
- IC50 [14]: 20 µM
- IC50 [15]: 20 µM
- IC50 [16]: 20 µM
- IC50 [17]: 20 µM
- IC50 [18]: 20 µM
- IC50 [19]: 20 µM
- IC50 [20]: 20 µM
- IC50 [21]: 20 µM
- IC50 [22]: 20 µM
- IC50 [23]: 20 µM
- IC50 [24]: 20 µM
- IC50 [25]: 20 µM
- IC50 [26]: 20 µM
- IC50 [27]: 20 µM
- IC50 [28]: 20 µM
- IC50 [29]: 20 µM
- IC50 [30]: 20 µM
- IC50 [31]: 20 µM
- IC50 [32]: 20 µM
- IC50 [33]: 20 µM
- IC50 [34]: 20 µM
- IC50 [35]: 20 µM
- IC50 [36]: 13.7 µM
- IC50 [37]: 20 µM
- IC50 [38]: 20 µM
- IC50 [39]: 20 µM
- IC50 [40]: 20 µM
- IC50 [41]: 20 µM
- IC50 [42]: 15.4 µM
- IC50 [43]: 20 µM
- IC50 [44]: 14.2 µM
- IC50 [45]: 20 µM
- IC50 [46]: 20 µM
- IC50 [47]: 20 µM
- IC50 [48]: 20 µM
- IC50 [49]: 20 µM
- IC50 [50]: 20 µM
- IC50 [51]: 20 µM
- IC50 [52]: 20 µM
- IC50 [53]: 20 µM
- IC50 [54]: 20 µM
- IC50 [55]: 20 µM
- IC50 [56]: 20 µM
- IC50 [57]: 20 µM
- IC50 [58]: 20 µM
- Activity [59]: Dose-Dependent Effect
- IC50 [60]: 20 µM
- IC50 [61]: 20 µM
- IC50 [62]: 20 µM
- IC50 [63]: 20 µM
- IC50 [64]: 20 µM

Compound: C/C=C/Cn1cc(-c2ccc(C(=O)N3CCOCC3)cc2)c2cc[nH]c2c1=O
- IC50 [1]: 20 µM
- IC50 [2]: 20 µM
- IC50 [3]: 20 µM
- IC50 [4]: 20 µM
- IC50 [5]: 20 µM
- IC50 [6]: 20 µM
- IC50 [7]: 20 µM
- IC50 [8]: 11.9 µM
- IC50 [9]: 20 µM
- IC50 [10]: 20 µM
- IC50 [11]: 20 µM
- IC50 [12]: 20 µM
- IC50 [13]: 20 µM
- IC50 [14]: 20 µM
- IC50 [15]: 20 µM
- IC50 [16]: 20 µM
- IC50 [17]: 20 µM
- IC50 [18]: 20 µM
- IC50 [19]: 20 µM
- IC50 [20]: 20 µM
- IC50 [21]: 20 µM
- IC50 [22]: 20 µM
- IC50 [23]: 20 µM
- IC50 [24]: 20 µM
- IC50 [25]: 20 µM
- IC50 [26]: 20 µM
- IC50 [27]: 20 µM
- IC50 [28]: 20 µM
- IC50 [29]: 20 µM
- IC50 [30]: 20 µM
- IC50 [31]: 20 µM
- IC50 [32]: 20 µM
- IC50 [33]: 20 µM
- IC50 [34]: 20 µM
- IC50 [35]: 20 µM
- IC50 [36]: 20 µM
- IC50 [37]: 20 µM
- IC50 [38]: 13.7 µM
- IC50 [39]: 20 µM
- IC50 [40]: 20 µM
- IC50 [41]: 20 µM
- IC50 [43]: 20 µM
- IC50 [44]: 14.2 µM
- IC50 [45]: 20 µM
- IC50 [46]: 20 µM
- IC50 [47]: 20 µM
- IC50 [48]: 20 µM
- IC50 [49]: 20 µM
- IC50 [50]: 20 µM
- IC50 [51]: 20 µM
- IC50 [52]: 20 µM
- IC50 [53]: 20 µM
- IC50 [54]: 20 µM
- IC50 [55]: 20 µM
- IC50 [56]: 20 µM
- IC50 [57]: 20 µM
- IC50 [58]: 20 µM
- Activity [59]: Dose-Dependent Effect
- IC50 [60]: 20 µM
- IC50 [61]: 20 µM
- IC50 [62]: 20 µM
- IC50 [63]: 20 µM
- IC50 [64]: 20 µM

Compound: C/C=C/Cn1cc(-c2cc(OC)c(C(=O)N3CCOCC3)cc2OC)c2cc(C)[nH]c2c1=O
- IC50 [42]: 2 µM
